Some test systems named below: K-562 leukemia; MOLT-4 leukemia; CCRF-CEM leukemia; SK-MEL-28 melanoma; SF-539 CNS; UACC-257 melanoma; NCI-H522 lung; EKVX NSCLC; IGROV1 ovarian; CAKI-1 renal.
Holding throughout (experiment): NCI tumour cell line growth inhibition, 48 h

Each structure is given as a SMILES string. Several values for one entry are separate records, joined by “and”; a condition that tells them apart may be missing. Equal entries are not always repeated.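 The compound was tested at five concentrations on cells cultured in 96-well plates, with a 48-hour exposure period. GI50 is the concentration that inhibits growth by half. Definition used: TGI = concentration required for complete inhibition of growth.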

As for `O=c1c2cc(Br)cc(Br)c2nc(CCCl)n1-c1ccc(O)c([N+](=O)[O-])c1`, the TGI with K-562 leukemia worked out at 61.9 µM; in the assay on MOLT-4 leukemia it was 50.5 µM; in the assay with CCRF-CEM leukemia, 43.7 µM; in the assay with SK-MEL-28 melanoma, 35.4 µM; in the assay on SF-539 CNS it was 37.1 µM; with UACC-257 melanoma it was 29.4 µM. Besides, the results for the TGI in the assay with NCI-H522 lung, with EKVX NSCLC and in the assay with IGROV1 ovarian were 23.5 µM, 75.8 µM and 40.4 µM, respectively.

`N#Cc1c(-c2ccccc2)cc(-c2ccc(N)cc2)[nH]c1=O`: the TGI with K-562 leukemia, with MOLT-4 leukemia, with CCRF-CEM leukemia, in the assay with SK-MEL-28 melanoma, with SF-539 CNS and with UACC-257 melanoma was more than 100 µM throughout. Besides, the TGI with NCI-H522 lung, with EKVX NSCLC and with IGROV1 ovarian was more than 100 µM throughout.

Take `CNC(=O)c1cc(Oc2cccc3nc(NC(=O)Nc4cc(C(F)(F)F)cc(C(F)(F)F)c4)ccc23)ccn1`: the GI50 with K-562 leukemia was 9.29 µM; with CAKI-1 renal, 10.1 µM; with MOLT-4 leukemia, 35.9 µM; in the assay on CCRF-CEM leukemia, 29.4 µM; in the assay on SK-MEL-28 melanoma it was 4.67 µM; in the assay on SF-539 CNS it was 6.68 µM. The GI50 in the assay on UACC-257 melanoma was 13.2 µM; in the assay on NCI-H522 lung, 6.65 µM; in the assay on EKVX NSCLC, 4.46 µM. The TGI with K-562 leukemia is more than 100 µM; with CAKI-1 renal, 57.3 µM; in the assay with MOLT-4 leukemia, more than 100 µM; with CCRF-CEM leukemia, more than 100 µM; in the assay with SK-MEL-28 melanoma, more than 100 µM; in the assay on SF-539 CNS, 37.9 µM. Further, the figures for the TGI in the assay with UACC-257 melanoma, with NCI-H522 lung and in the assay with EKVX NSCLC were 44.1 µM, 35.4 µM and 86.3 µM, respectively.

For the compound `O=C(Cc1nc2sc3c(c2c(=O)[nH]1)CCCC3)Nc1ccccc1`, the TGI with K-562 leukemia, in the assay on CAKI-1 renal, with MOLT-4 leukemia, in the assay on CCRF-CEM leukemia, with SK-MEL-28 melanoma and with SF-539 CNS was more than 100 µM each time. Moreover, the TGI in the assay with NCI-H522 lung, in the assay with EKVX NSCLC and in the assay on IGROV1 ovarian was more than 100 µM throughout.

On to `O=C(CSCC(=O)N/N=C/c1ccccc1O)N/N=C\c1ccccc1O`, for which the GI50 in the assay on K-562 leukemia was 2.39 µM; in the assay with CAKI-1 renal, 0.627 µM; in the assay with CCRF-CEM leukemia, 0.433 µM; with SK-MEL-28 melanoma it was 8.05 µM; in the assay on SF-539 CNS, 2.1 µM; with UACC-257 melanoma, 3.09 µM. For the same compound, the GI50 in the assay on NCI-H522 lung is 3.61 µM; in the assay with EKVX NSCLC, 2.44 µM; with IGROV1 ovarian it was 1.91 µM. Also, the TGI in the assay on K-562 leukemia was more than 100 µM; in the assay with CAKI-1 renal it was 9.82 µM; in the assay on CCRF-CEM leukemia it was more than 100 µM; with SK-MEL-28 melanoma, more than 100 µM; with SF-539 CNS it was 23 µM; with UACC-257 melanoma, 22.5 µM. In addition, the TGI in the assay on NCI-H522 lung, in the assay on EKVX NSCLC and in the assay on IGROV1 ovarian was more than 100 µM in each case.

For the compound `C=C1c2ccccc2C(=O)c2c1c1c(C(=O)OC)c(OC(=O)OCc3ccc([N+](=O)[O-])cc3)ccc1n2Cc1ccccc1`, the GI50 is 2.55 µM in the assay on K-562 leukemia; 20.3 µM with CAKI-1 renal; 2.6 µM in the assay with MOLT-4 leukemia; 1.78 µM with CCRF-CEM leukemia; 6.47 µM in the assay on SF-539 CNS; 29.8 µM in the assay on UACC-257 melanoma. Besides, the GI50 in the assay on NCI-H522 lung is 6.83 µM; with EKVX NSCLC, 33.6 µM; in the assay with IGROV1 ovarian, 14 µM. For the same compound, the TGI is more than 100 µM with K-562 leukemia; 58.2 µM in the assay on CAKI-1 renal; 11.6 µM in the assay on MOLT-4 leukemia; 6.83 µM with CCRF-CEM leukemia; 32.3 µM in the assay on SF-539 CNS; more than 100 µM in the assay with UACC-257 melanoma. Also, the TGI with NCI-H522 lung was 38.6 µM; in the assay on EKVX NSCLC, more than 100 µM; in the assay on IGROV1 ovarian it was 41.9 µM.

As for `O=C1/C(=C/c2ccc3c(c2)OCCO3)CCC/C1=C\c1ccc2c(c1)OCCO2`, the TGI in the assay on CAKI-1 renal was more than 100 µM; with MOLT-4 leukemia it was more than 100 µM; in the assay on CCRF-CEM leukemia, more than 100 µM; with SK-MEL-28 melanoma, 77.2 µM; with SF-539 CNS, 38.6 µM; in the assay on UACC-257 melanoma, 59.7 µM. Besides, the TGI in the assay with NCI-H522 lung was 92.3 µM; with EKVX NSCLC it was more than 100 µM; in the assay on IGROV1 ovarian it was more than 100 µM.

For `COCCOCCOCc1n(Cc2ccc3ccccc3c2)c2ccccc2[n+]1Cc1ccc2ccccc2c1`, the GI50 was 0.239 µM with K-562 leukemia; 0.693 µM in the assay with MOLT-4 leukemia; 0.488 µM in the assay with CCRF-CEM leukemia; 0.503 µM in the assay on SK-MEL-28 melanoma; 0.587 µM in the assay on SF-539 CNS; 0.289 µM in the assay on UACC-257 melanoma. Besides, the GI50 was 0.303 µM in the assay on NCI-H522 lung, 1.04 µM with EKVX NSCLC and 0.328 µM in the assay on IGROV1 ovarian. Moreover, the TGI was found to be 1.46 µM in the assay with K-562 leukemia; 2.43 µM in the assay with MOLT-4 leukemia; 2.29 µM in the assay on CCRF-CEM leukemia; 1.92 µM with SK-MEL-28 melanoma; 2.01 µM with SF-539 CNS; 0.988 µM in the assay on UACC-257 melanoma. Besides, the TGI in the assay on NCI-H522 lung was found to be 1.3 µM; in the assay with EKVX NSCLC, 2.68 µM; with IGROV1 ovarian, 1.55 µM.

For the compound `CC(C)(C)c1cc(C(=O)Nc2ccc(C(=O)NCCN)cc2)cc(C(C)(C)C)c1`, the GI50 was 1.94 µM in the assay on K-562 leukemia; 15.5 µM in the assay on CAKI-1 renal; 2.63 µM in the assay on MOLT-4 leukemia; 2.54 µM with CCRF-CEM leukemia; 1.79 µM in the assay with SK-MEL-28 melanoma; 1.68 µM with SF-539 CNS. The GI50 was 17.7 µM in the assay with UACC-257 melanoma, 2.41 µM with NCI-H522 lung and 2.04 µM in the assay on EKVX NSCLC. Further, the TGI in the assay with K-562 leukemia came to 5.06 µM; in the assay on CAKI-1 renal, 32.9 µM; in the assay on MOLT-4 leukemia, 7.3 µM; in the assay with CCRF-CEM leukemia, 7.28 µM; in the assay with SK-MEL-28 melanoma, 3.67 µM; in the assay with SF-539 CNS it was 3.41 µM. In addition, the values for the TGI in the assay with UACC-257 melanoma, in the assay with NCI-H522 lung and in the assay with EKVX NSCLC were 37.4 µM, 7.63 µM and 14.5 µM, respectively.

Consider `CCOC(=O)C(Cc1c[nH]c2cc(N(CCO)CCO)ccc12)(NC(C)=O)C(=O)OCC`, for which the GI50 is 81.7 µM with K-562 leukemia; 636 µM in the assay on SK-MEL-28 melanoma; 42.9 µM and 286 µM in the assay on SF-539 CNS; more than 1000 µM with UACC-257 melanoma; 61.9 µM in the assay on NCI-H522 lung; more than 1000 µM in the assay on EKVX NSCLC. In the assay on IGROV1 ovarian, the GI50 was 445 µM. For the same compound, the TGI was 501 µM in the assay with K-562 leukemia; 57.2 µM and 448 µM in the assay on CCRF-CEM leukemia; more than 1000 µM in the assay with SK-MEL-28 melanoma; 770 µM in the assay with SF-539 CNS; more than 1000 µM with UACC-257 melanoma; more than 1000 µM in the assay on NCI-H522 lung. Also, the TGI with EKVX NSCLC and in the assay with IGROV1 ovarian was more than 1000 µM each time.

For the origin of these results see PubChem BioAssay (NCI).
